Laboratory results taken from patent US20050215435A1, “Phenylalanine derivatives as herbicides” (priority 2002, published 2005).

Assays:
Experiment in all cases: Greenhouse herbicidal action, post-emergence
Type in all cases: in vivo
Setaria italica = system: Setaria italica
Excerpt: (§1) The seeds of the test plants were sown separately for each species. For the post-emergence treatment, the test plants were first grown to a height of from 3 to 15 cm, depending on the plant habit, and only then treated with the active compounds which had been suspended or emulsified in water. The test plants were for this purpose either sown directly and grown in the same containers, or they were first grown separately as seedlings and transplanted into the test containers a few days prior to treatment. […] (active substance). Depending on the species, the plants were kept at 10-25° C. or 20-35° C. The test period extended over from 2 to 4 weeks. During this time, the plants were tended, and their response to the individual treatments was evaluated. Evaluation was carried out using a scale from 0 to 100. 100 means no emergence of the plants, or complete destruction of at least the aerial parts and 0 means no damage, or normal course of growth. The plants used in the greenhouse experiments were of the following species: [table]

Sinapis alba = system: Sinapis alba
Excerpt: as §1

Abutilon theophrasti = system: Abutilon theophrasti
Excerpt: as §1

Chenopodium album = conditions: 1.0 kg of a.s./ha
Excerpt: as §1

## CNC(=O)C(NC(=O)c1ccccc1C(F)(F)F)C(C)c1ccccc1F (single isomer, unassigned) [Compound I-32]
Setaria italica; 0.095 kg of a.s./ha
  control of Setaria italica: very good control
Sinapis alba; 0.095 kg of a.s./ha
  control of Sinapis alba: very good control

## CNC(=O)[C@H](Cc1ccccc1C)NC(=O)c1ccccc1C(F)(F)F [Compound I-19]
Abutilon theophrasti; 0.5 kg of a.s./ha
  control of Abutilon theophrasti: very good control
Setaria italica; 0.5 kg of a.s./ha
  control of Setaria italica: very good control

## CNC(=O)[C@H](Cc1cccc(F)c1)NC(=O)c1cccc(F)c1C(F)(F)F [Compound I-24]
Abutilon theophrasti; 0.5 kg of a.s./ha
  control of Abutilon theophrasti: very good control
Sinapis alba; 0.5 kg of a.s./ha
  control of Sinapis alba: very good control

## CNC(=O)[C@H](Cc1cccc(F)c1)NC(=O)c1cc(F)ccc1C(F)(F)F [Compound I-25]
Abutilon theophrasti; 0.5 kg of a.s./ha
  control of Abutilon theophrasti: very good control
Setaria italica; 0.5 kg of a.s./ha
  control of Setaria italica: very good control
Sinapis alba; 0.5 kg of a.s./ha
  control of Sinapis alba: very good control

## CNC(=O)[C@H](Cc1ccccc1C)NC(=O)c1ccc(Cl)c(C(F)F)c1Cl [Compound I-49]
Abutilon theophrasti; 1.91 kg of a.s./ha
  control of Abutilon theophrasti: very good control
Abutilon theophrasti; 3.0 kg of a.s./ha
  control of Abutilon theophrasti: very good control
Setaria italica; 1.91 kg of a.s./ha
  control of Setaria italica: very good control
Setaria italica; 3.0 kg of a.s./ha
  control of Setaria italica: very good control
Sinapis alba; 1.91 kg of a.s./ha
  control of Sinapis alba: very good control
Sinapis alba; 3.0 kg of a.s./ha
  control of Sinapis alba: very good control

## CNC(=O)[C@H](Cc1ccccc1C)NC(=O)c1ccc(F)cc1C(F)(F)F [Compound I-51]
Abutilon theophrasti; 1.0 kg of a.s./ha
  control of Abutilon theophrasti: very good control
Chenopodium album
  control of Chenopodium album: very good control

## CNC(=O)[C@H](Cc1ccccc1C)NC(=O)c1cccc(F)c1C(F)(F)F [Compound I-53]
Abutilon theophrasti; 0.5 kg of a.s./ha
  control of Abutilon theophrasti: very good control
Setaria italica; 0.5 kg of a.s./ha
  control of Setaria italica: very good control
Sinapis alba; 0.5 kg of a.s./ha
  control of Sinapis alba: very good control

## CNC(=O)C(NC(=O)c1ccc(F)cc1C(F)(F)F)C(C)c1ccccc1F (stereo not drawn) [II-7]
Abutilon theophrasti; 1.0 kg of a.s./ha
  control of Abutilon theophrasti: very good control
Chenopodium album
  control of Chenopodium album: very good control

## CNC(=O)C(Cc1ccccc1)NC(=O)c1ccc(F)cc1C(F)(F)F (stereo not drawn) [II-91]
Abutilon theophrasti; 2.0 kg of a.s./ha
  control of Abutilon theophrasti: very good control
Sinapis alba; 2.0 kg of a.s./ha
  control of Sinapis alba: very good control

## CNC(=O)C(Cc1ccccc1C)NC(=O)c1ccccc1S(C)(=O)=O (stereo not drawn) [II-111]
Abutilon theophrasti; 1.0 kg of a.s./ha
  control of Abutilon theophrasti: very good control
Setaria italica; 1.0 kg of a.s./ha
  control of Setaria italica: very good control
Sinapis alba; 1.0 kg of a.s./ha
  control of Sinapis alba: very good control

## Nα-(2-trifluoromethyl-4-fluorobenzoyl)-2-(1-methyl-1-(2-fluorophenyl))glycine-N-methylamide [II-15]
Abutilon theophrasti; 0.5 kg of a.s./ha
  control of Abutilon theophrasti: very good control
Setaria italica; 0.5 kg of a.s./ha
  control of Setaria italica: very good control
Sinapis alba; 0.5 kg of a.s./ha
  control of Sinapis alba: very good control
